How the values were obtained:
Format in all cases: cell-based, human
[1] = system: PSGL-1 expression on neutrophils; assay: Flow cytometric analysis of PSGL-1 expression on healthy and treated neutrophils; details: glucose 30 mM, TNF-α 10 ng/mL or PMA 1 μM treated vs healthy neutrophils; flow cytometry
Procedure: (§1) (A) Image overlay (60× magnification) from captured cell rolling videos highlight distinct differences in rolling trajectories between healthy and TNF-α-treated neutrophils. (B) Cumulative frequency curves of neutrophil rolling speed for healthy, glucose-treated (30 mM), TNF-α-treated (10 ng/mL) and PMA-treated (1 μM) neutrophils. […] Flow cytometric analysis of (C) PSGL-1 and (D) CD11b expression on healthy and treated neutrophils. Cells were incubated with mouse APC anti-human PSGL-1 IgG2a/mouse APC IgG2a isotype and FITC mouse anti-human CD11b (activated) IgG1/FITC mouse IgG1 isotype.
(§2) To study neutrophil rolling phenotype on E-selectin, a straight microchannel (1 cm (l)×400 μm (w)×60 μm (h)) with recombinant human E-selectin (50 μg/mL) was coated to simulate flow conditions in post capillary venules (˜1-10 dynecm^−2). DFF-sorted neutrophils were pumped into the channel at physiological shear conditions (2 dynecm^−2) and timelapse imaging was used to capture neutrophil rolling. A MATLAB tracking algorithm was developed to track neutrophil rolling trajectories and speed measurement for high throughput single cell analysis. […]

[2] = system: DFF-purified neutrophils rolling on E-selectin; assay: Microfluidic neutrophil rolling assay on E-selectin-coated microchannel; details: for Neutrophil rolling speed on E-selectin: DFF-sorted neutrophils treated with glucose 30 mM, TNF-α 10 ng/mL or PMA 1 μM, shear 2 dynecm^−2, compared with healthy neutrophils, P<0.005
Text: In another aspect, the present invention also relates to a microfluidic flow channel, wherein its inner wall is coated with E-selectin. Such channel may have a length of at least 0.1 cm. Preferably, the channel has a length of 0.5-2 cm. The width may be at least 200 μm, preferably between 350-500 μm. The channel height may be at least 40 μm, preferably between 45-75 μm and more preferably the height is 60 μm. An example to determine the rolling speed by using an E-selectin coated channel is given below. Briefly, a straight microchannel (1 cm length by 400 μm width by 60 μm height) can be coated with E-selectin (50 μg/mL, Peprotech) for 1 h at 4° C. and blocked with 0.5% BSA in PBS for 30 min at room temperature. After blocking, the channel can be connected to a syringe loaded with 0.1% BSA in PBS to prime and wash away excess E-selectin in the channel. For rolling assay, CaCl2 (20 μM, Sigma-Aldrich) can be added to the DFF-purified neutrophils to facilitate the calcium-dependent interactions of neutrophil binding and rolling on E-selectin. ˜10-20 μL of DFF-purified neutrophils (˜10^6 cells/mL) can be loaded at the inlet reservoir and the syringe can be set to withdraw at 2.6 μL/min (˜2 dynecm^−2) to initiate neutrophil rolling. Phase contrast image can be captured for 30 s at the centre of the microchannel every 0.5 s interval (total of 61 frames) at 20× magnification using MetaMorph software (Molecular Devices). […] The neutrophils can then be washed at 1000×g for 4 min and resuspended to a concentration of ˜10^6 cells/mL with 20 μM CaCl2 for rolling assay.
To study neutrophil rolling phenotype on E-selectin, a straight microchannel (1 cm (l)×400 μm (w)×60 μm (h)) with recombinant human E-selectin (50 μg/mL) was coated to simulate flow conditions in post capillary venules (˜1-10 dynecm^−2). DFF-sorted neutrophils were pumped into the channel at physiological shear conditions (2 dynecm^−2) and timelapse imaging was used to capture neutrophil rolling. A MATLAB tracking algorithm was developed to track neutrophil rolling trajectories and speed measurement for high throughput single cell analysis. […] These differences in rolling phenotypes were further investigated by measuring neutrophil PSGL-1 expression, which is known to mediate leukocyte rolling on E-selectin, as well as CD11b, a Mac-1 integrin expressed on leukocytes that supports adhesion to E-selectin.
After having established that neutrophils from T2DM patients rolled faster on E-selectin as compared to healthy subjects, it was determined if these functional differences can be associated to clinical conditions by analyzing rolling speed frequencies in T2DM patients that are higher than the average rolling speed of healthy subjects (≥5 μm/sec). […]

[3] = system: CD11b expression on neutrophils; assay: Flow cytometric analysis of CD11b expression on healthy and treated neutrophils; details: glucose 30 mM, TNF-α 10 ng/mL or PMA 1 μM treated vs healthy neutrophils; flow cytometry
Procedure: as §1, §2

Compound | PSGL-1 expression on neutrophils [1] | Neutrophil rolling speed on E-selectin [2] | Neutrophil CD11b level [3] | Neutrophil rolling trajectories on E-selectin ([2]; TNF-α-activated neutrophils vs healthy neutrophils (steady rolling in a straight path)) | Average rolling speed of drug-treated neutrophils ([2]; DFF-purified neutrophils of healthy subjects incubated with metformin 1 mM or pravastatin 20 μM for 1 h, vs untreated controls, all paired observations, P<0.05)
CCCCCCCCCCCCCC(=O)O[C@@H]1[C@@H](C)[C@@]2(O)[C@@H](C=C(CO)C[C@]3(O)C(=O)C(C)=C[C@@H]23)[C@@H]2C(C)(C)[C@]12OC(C)=O [PMA] | downregulation was more significant | did not roll, but instead adhered firmly on E-selectin | higher increase |  | 
tumor necrosis factor alpha [TNF-α] | decreased | higher than healthy neutrophils |  | discontinuous with “flipping” motions | 
CN(C)C(=N)N=C(N)N [metformin] |  |  |  |  | higher than controls
